Assay results as given in paper PMC10477886, “Adamantaniline Derivatives Target ATP5B to Inhibit Translation of Hypoxia Inducible Factor‐1α” (Advanced Science, 2023).
“Also recorded” adds a separate entry of the source.

Columns and labels:
[1] = system: HIF‐1α and HIF‐1β mRNA expression; test: RT‐qPCR of HIF‐1α and HIF‐1β mRNA; assay type: cell-based, human
Text: The whole protein synthesis process can be divided into four major steps: transcription, translation, posttranslational modifications and folding to a mature protein, and protein secretion.^[ [52] ^] We then investigated the potential effects of HI‐101 on HIF‐1α transcription and translation. […] On the basis of the existing experimental results, we draw a conclusion that HI‐101 inhibited the synthesis of nascent HIF‐1α protein without affecting its transcription.
(§1) Total RNA was isolated using Trizol reagent (Invitrogen). Complementary DNA was synthesized using a Reverse Transcriptase reagent (Promega). Fluorescence real‐time PCR was performed with the double‐stranded DNA dye SYBR Master Mix (Roche Diagnostics Corporation, Indianapolis, IN, USA) and the Applied Biosystems Step One Plus detection system (ABI 7900). The upstream and downstream gene‐specific primers were as follows. • HIF‐1α sense: 5′‐[…]‐3′, • HIF‐1α antisense: 5′‐[…]‐3′; • HIF‐1β sense: 5′‐[…]‐3′, • HIF‐1β antisense:5′‐[…]‐3′; • VEGF sense: 5′‐[…]‐3′, • VEGF antisense: 5′‐[…]‐3′; • PDK1 sense:5′‐[…]‐3′, • PDK1 antisense:5′‐GGAGGTCTCAACACGAGGT‐3′; • β‐actin sense: 5′‐[…]‐3′, • β‐actin antisense: 5′‐[…]‐3′; • ATP5D sense:5′‐ […]‐3′, • ATP5D antisense: 5′‐[…]‐3′; • ATP5E sense: 5′‐ […]‐3′, • ATP5E antisense:5′‐[…]‐3′; • ATP5F1 sense: 5′‐ […]‐3′, • ATP5F1 antisense:5′‐[…]‐3′.

[2] = system: HIF‐1α target genes (VEGF and PDK1) mRNA expression; test: quantitative RT‐PCR of HIF‐1α target genes; assay type: cell-based, human; conditions: listed as HI‐101
Experimental: as §1

[3] = molecular target: T1, interaction between ATP5B and HIF‐1α mRNA (Homo sapiens, UniProt P06576); test: RNA‐binding protein immunoprecipitation; assay type: cell-based; conditions: immunoprecipitation with anti‐ATP5B antibody
T1 construct: endogenous in cells
Text: It has been reported recently that KUSC‐5037 inhibited HIF‐1α transcription by suppressing FoF1‐ATP synthase activity.^[ [35] ^] Thus, we wondered whether HI‐101 inhibited HIF‐1α translation in a similar way. Several ATP synthase inhibitors with various mechanisms of action have been reported.^[ [54] ^] Among them, Oligomycin inhibits the ATP synthase activity by binding the FO domain; Bedaquiline, an FDA‐approved drug, inhibits mitochondrial ATP production by targeting the gamma subunit of the ATP synthase;^[ [55] ^] Aurovertin B decreases ATP synthase activity by targeting the subunits of F1 domain. We first measured HIF‐1α transcriptional activity and protein level with the presence of reported ATP synthase inhibitors. […] A recent study reported that ATP5B shut down mPTP by binding circRNA SCAR in an enzymatic‐independent way,^[ [56] ^] which reminded us whether ATP5B played a similar role in blocking HIF‐1α translation. RNA‐binding protein immunoprecipitation was then performed using the Magna RIP RNA‐Binding Protein Immunoprecipitation Kit (Millipore, Burlington, MA) to detect the interaction between ATP5B and HIF‐1α mRNA.

F1‐ATP synthase complex = F1‐ATP synthase complex (Sus scrofa, UniProt K7GLT8+P80021); test: fluorescence polarization binding assay; set-up: species or system pig; conditions: F1‐ATPase 30 nM, HI‐103 4 nM, competitor 1 μM
Text: ATP5A and ATP5B are important components of FOF1–ATP synthase, also known as ATP synthase, which is a protein complex that catalyzes ATP synthesis by utilizing energy from the translocation of protons across biological membranes.^[ [40] ^] FOF1‐ATP synthase consists of two domains: the membrane‐spanning domain, FO, which acts as a proton channel, and the soluble catalytic domain, F1, which synthesizes ATP and is composed of nine subunits(α 3 β 3 γδɛ).^[ [41], [42], [43], [44] ^] […] To verify whether HI‐101 targeted ATP5A and ATP5B, we knocked down the subunits of F1 domains separately by shRNA.
F1‐ATPase at indicated concentrations was incubated with HI‐103 (4 nM), bodipy‐1 was as a negative molecule, conduct the experiment after incubating in 96‐well microplates of black polystyrene for 10 min. The FP results were analyzed with GraphPad Prism 9.0.

HIF‐1α protein synthesis = test: AHA labeling assay of nascent HIF‐1α protein; assay type: cell-based, human; conditions: HEK293T, hypoxia, 10 or 20 µM
Experimental: Lysosome and ubiquitin/proteasome systems are two main pathways for cellular protein degradation.^[ [49], [50] ^] MG‐132 and PS‐341 are potent, selective, and reversible proteasome inhibitors, chloroquine (CQ) and NH4Cl are autophagy inhibitors that inhibit lysosomal degradation by increasing lysosomal pH. MG‐132, PS‐341, CQ, NH4Cl, and DMSO at indicated concentrations were added to HEK293T cells for 6 h followed by treatment with DMSO or 10 µM HI‐101 for another 12 h under hypoxia condition. Cells were then collected, lysed, and immunoblotted to detect HIF‐1α protein level. […] In order to verify whether HI‐101 inhibited the synthesis of HIF‐1α protein, L‐azidohomoalanine (AHA) labeling assay^[ [51] ^] was carried out. The nascent protein was labeled by AHA incorporation, enriched by click reaction, and detected by anti‐biotin antibody.
HEK293T cells seeded in 10 cm dishes were added with DMSO or HI‐101 at concentrations 10 or 20 µM, then cultured in hypoxia incubator. The next day, cells were washed twice with PBS and incubated in DMEM without methionine for 4 h. At the same time, add […] (AHA) to all groups, and the positive control group treatment with cycloheximide (CHX). AHA concentration and incubation time were 50 µM and 4 h. […]

- HIF‐1α mRNA binding to ATP5B [3]: improved HIF‐1α mRNA binding to ATP5B
Compound: O=C(Nc1ccc(C23CC4CC(CC(C4)C2)C3)cc1)c1cccc(Cl)c1 [1‐3a, N‐(4‐((3r,5r,7r)‐Adamantan‐1‐yl)Phenyl)−3‐Chlorobenzamide]
- HIF‐1α and HIF‐1β mRNA expression [1]: did not affect HIF‐1α and HIF‐1β mRNA expression
- HIF‐1α target genes mRNA expression [2]: significantly inhibited HIF‐1α transcriptional activity and the expressions of HIF‐1α target genes; also recorded: significantly decreased the mRNA expression of HIF‐1α target gene VEGF
- competitive fluorescence polarization binding (F1‐ATP synthase complex): bound to F1‐ATP synthase complex in a similar way as HI‐103
- HIF‐1α protein synthesis (nascent, AHA labeled) (HIF‐1α protein synthesis): significantly inhibited
